Measured values as given in paper PMC9088073, “Discovery of 2-Phenylquinolines with Broad-Spectrum Anti-coronavirus Activity” (ACS Medicinal Chemistry Letters, 2022).
Read-outs that look alike come from different tables or passages of the source.

Legend:
SARS-CoV-2 = test: microbe, parasite or virus in culture; format: cell-based
HCoV-229E = test: microbe, parasite or virus in culture; format: cell-based; conditions: Human coronavirus 229E, HEL 299, read-out: HCoV-229E EC50
in vitro [1] = conditions: human
in vitro [2] = conditions: chlorocebus sabaeus
VeroE6 cells = conditions: uninfected VeroE6 cells, MTS assay; mean ± SD of duplicate experiments
HCoV-OC43 = test: microbe, parasite or virus in culture; format: cell-based; conditions: Betacoronavirus 1, OC43, HEL 299, read-out: HCoV-OC43 EC50
[3] = system: autophagy (LC3-II puncta) in VeroE6 cells; test: Autophagy inhibition assay, LC3-II immunofluorescence in VeroE6 cells; format: cell-based; conditions: for effect on autophagy (LC3-II accumulation), in words: 10 μM, 4 h, compared to CQ
SARS-CoV-2 nsp12 RdRp = SARS-CoV-2 nsp12 RdRp (Severe acute respiratory syndrome coronavirus 2, UniProt P0DTD1); test: SARS-CoV-2 nsp12 RdRp activity, fluorescent-based assay; format: biochemical; conditions: in the presence of the highest concentration of tested compound (30 μM); read-out: RdRp percentage of control
[4] = biological target: SARS-CoV-2 nsp13 helicase (Severe acute respiratory syndrome coronavirus 2, UniProt P0DTD1); test: biochemical; format: biochemical; conditions: for IC50: SARS-CoV-2 nsp13 helicase-associated activity, read-out: helicase unwinding IC50
SARS-CoV-2 nsp13 ATPase = SARS-CoV-2 nsp13 ATPase (Severe acute respiratory syndrome coronavirus 2, UniProt P0DTD1); format: biochemical; conditions: for IC50: SARS-CoV-2 nsp13 ATPase-associated activity, read-out: helicase ATPase IC50; for helicase ATPase percentage of control: in the presence of the highest concentration of tested compound (30 μM; 3 μM for SSYA10-001)
[5] = Severe acute respiratory syndrome coronavirus 2, […], mean ± SD of duplicate experiments, read-out: Anti-SARS-CoV-2 activity EC50
[6] = […], mean ± SD of duplicate experiments

| Structure (SMILES) | EC50 (SARS-CoV-2; [5]) | EC50 (HCoV-229E) | CC50 (in vitro [1]) | CC50 (in vitro [2]) | EC50 (HCoV-OC43) | further results |
| --- | --- | --- | --- | --- | --- | --- |
| N#C[C@@]1(c2ccc3c(N)ncnn23)O[C@H](CO)[C@@H](O)[C@H]1O [GS-441524, reference compound] | 0.7 ± 0.07 µM | 0.9 ± 0.1 µM | > 100 µM | – | – | – |
| CCN(CC)CCOc1cc(-c2ccccc2)nc2ccccc12 [Compound 12a] | > 100 µM | – | – | 64.7 ± 29.8 µM | – | Anti-SARS-CoV-2 activity EC50 (SARS-CoV-2; [6]): loss of activity |
| CCCOc1ccc(-c2cc(OCCN3CCN(Cc4ccccc4)CC3)c3cc(OC)cc(OC)c3n2)cc1 [Compound 9f] | > 100 µM | – | – | > 100 µM | – | VeroE6 cells CC50 (VeroE6 cells): lacked cytotoxicity |
| CCCOc1ccc(-c2cc(OCCN3Cc4ccccc4C3)c3c(OC)cc(OC)cc3n2)cc1 [Compound 6o, 4-[2-(1,3-Dihydro-2H-isoindol-2-yl)ethoxy]-5,7-dimethoxy-2-(4-propoxyphenyl)quinoline] | > 100 µM | – | – | > 100 µM | – | Anti-SARS-CoV-2 activity EC50 (SARS-CoV-2; [6]): devoid of any activity |
| NC(=O)c1ccc(Oc2ccc(C(N)=O)cc2)cc1 [OUL-355] | – | – | – | – | – | EC50 (SARS-CoV-2; read-out: Anti-SARS-CoV-2 activity EC50, primary screening): > 100 µM |
| CCCOc1ccc(-c2cc(OCCN3CCNCC3)c3cccc(OC)c3n2)cc1 [Compound 5i] | 7.1 ± 4.2 µM | 0.3 ± 0.05 µM | 8 ± 1.3 µM | 30.3 ± 0.8 µM | 1.7 ± 0.2 µM | – |
| CCCOc1ccc(-c2cc(OCCN3CCc4cc(OC)c(OC)cc4C3)c3ccccc3n2)cc1 [Compound 1g] | > 100 µM | – | – | – | – | – |
| CCCOc1ccc(-c2cc(OCc3ccccn3)c3ccccc3n2)cc1 [Compound 1e] | > 100 µM | – | – | – | – | – |
| CCCOc1ccc(-c2cc(OCCN3CCc4cc(OC)c(OC)cc4C3)c3cc(OC)cc(OC)c3n2)cc1 [Compound 9g] | > 100 µM | – | – | > 100 µM | – | Anti-SARS-CoV-2 activity EC50 (SARS-CoV-2; [6]): devoid of antiviral activity; effect on autophagy (LC3-II accumulation), in words [3]: minimal effect on the autophagy |
| CCCOc1ccc(-c2cc(OCCN(Cc3ccccc3)Cc3ccccc3)c3ccccc3n2)cc1 [Compound 1c] | > 100 µM | – | – | – | – | – |
| CCCOc1ccc(-c2cc(OCCN3CCCC3)c3c(OC)ccc(OC)c3n2)cc1 [Compound 7j] | 11.3 ± 2.1 µM | 0.6 ± 0.3 µM | 8.7 ± 0.8 µM | 89.8 ± 2.8 µM | 1.8 ± 0.7 µM | – |
| CCCOc1ccc(-c2cc(OCCN(CC)CC)c3cc(OC)c(OC)cc3n2)cc1 [Compound 8a] | 5.1 ± 1.4 µM | 1.8 ± 0.4 µM | 9.2 ± 0.1 µM | 70.3 ± 23.7 µM | 1.9 ± 0.4 µM | – |
| CCCOc1ccc(-c2cc(OCCN3CCc4cc(OC)c(OC)cc4C3)c3cccc(OC)c3n2)cc1 [Compound 5g] | > 100 µM | – | – | > 100 µM | – | Anti-SARS-CoV-2 activity EC50 (SARS-CoV-2; [6]): devoid of antiviral activity; effect on autophagy (LC3-II accumulation), in words [3]: minimal effect on the autophagy |
| CCCOc1ccc(-c2cc(OCCN3CCCCC3)c3c(OC)ccc(OC)c3n2)cc1 [Compound 7k] | 2.7 ± 1.9 µM | 9.4 ± 3.6 µM | 95.3 ± 3.3 µM | 23.8 ± 5.7 µM | 7.7 ± 3.3 µM | remaining activity at 30 µM (SARS-CoV-2 nsp12 RdRp): 100%; IC50 [4]: 1.41 ± 0.64 µM; IC50 (SARS-CoV-2 nsp13 ATPase): > 30 µM; helicase ATPase percentage of control (SARS-CoV-2 nsp13 ATPase): 100% |
| CCCOc1ccc(-c2cc(OCCN(CC)CC)c3c(OC)ccc(OC)c3n2)cc1 [Compound 7a] | 4.6 ± 0.2 µM | 0.7 ± 0.3 µM | 9.9 ± 0.8 µM | 24.6 ± 0.1 µM | 2 ± 0.2 µM | – |
| CCCOc1ccc(-c2cc(OCCN(CC)CC)c3cc(OC)cc(OC)c3n2)cc1 [Compound 9a] | 13 ± 10 µM | 3.5 ± 2.7 µM | 43.5 ± 5.6 µM | > 100 µM | 2.2 ± 0.5 µM | – |
| CCCOc1ccc(-c2cc(OCCCN(C)C)c3cc(OC)ccc3n2)cc1 [Compound 3b] | > 100 µM | – | – | – | – | – |
| CCCOc1ccc(-c2cc(OCCN3CCCC3)c3cc(OC)c(OC)cc3n2)cc1 [Compound 8j] | 9.6 ± 2.2 µM | – | – | 12.9 ± 4.8 µM | – | – |
| CCN(CC)CCCC(C)Nc1ccnc2cc(Cl)ccc12 (stereo not shown) [Chloroquine, chloroquine, reference compound] | – | – | 33.6 ± 1.3 µM | 83.4 ± 4.2 µM | < 0.8 µM | increase in the intensity of the cytoplasmic LC3 puncta ([3]; 10 μM for 4 h): 9 fold |
| CCCOc1ccc(-c2cc(OCCN3CCCC3)c3c(OC)cc(OC)cc3n2)cc1 [Compound 6j] | > 100 µM | – | – | 16.1 ± 17 µM | – | – |
| c1ccc(-c2cc(OCCN3CCCCC3)c3ccccc3n2)nc1 [Compound 14k] | > 100 µM | – | – | – | – | Anti-SARS-CoV-2 activity EC50 (SARS-CoV-2; [6]): loss of activity |
| CCCOc1ccc(-c2cc(OCCN3CCCC3)c3cc(OC)cc(OC)c3n2)cc1 [Compound 9j] | 5.9 ± 2.4 µM | 40 ± 20.8 µM | > 100 µM | > 100 µM | 22.7 ± 2.8 µM | remaining activity at 30 µM (SARS-CoV-2 nsp12 RdRp): 100%; IC50 [4]: > 30 µM; remaining activity at 30 µM ([4]; in the presence of the highest concentration of tested compound (30 μM), read-out: helicase unwinding percentage of control): 57%; IC50 (SARS-CoV-2 nsp13 ATPase): > 30 µM; helicase ATPase percentage of control (SARS-CoV-2 nsp13 ATPase): 100% |
